Literature values as cited in patent publication US6986763B2, “Methods and compositions usable in cataract surgery” (PHACOTREAT AB, priority 2001, dated 2006).

Key:
lens epithelial cells [1] = conditions: cadaver eyes; for separation of lens epithelial cells: agent in irrigation solution
lens epithelial cells [2] = conditions: in vitro

Row | Compound | separation of lens epithelial cells (lens epithelial cells [1]) | inhibiting lens epithelial cells proliferation (lens epithelial cells [2]) | damage to the zonules (lens epithelial cells [1]; 2% solution in irrigation solution)
1 | O=C(O)CN(CCN(CC(=O)O)CC(=O)O)CC(=O)O [EDTA, Ethylenediamine tetraacetic acid] | the anterior lens epithelial cells could be separated |  | 
2 | CN(Cc1cnc2nc(N)nc(N)c2n1)c1ccc(C(=O)N[C@@H](CCC(=O)O)C(=O)O)cc1 [methotrexate] |  | effective | 
3 | O=c1[nH]cc(F)c(=O)[nH]1 [5-fluorouracil] |  | effective | 
4 | COc1cc2c(c(OC)c1OC)-c1ccc(OC)c(=O)cc1[C@@H](NC(C)=O)CC2 [colchicines] |  | effective | 
5 | CC(=O)O[C@H]1C(=O)[C@@]2(C)[C@H]([C@H](OC(=O)c3ccccc3)[C@]3(O)C[C@H](OC(=O)[C@H](O)[C@@H](NC(=O)c4ccccc4)c4ccccc4)C(C)=C1C3(C)C)[C@]1(OC(C)=O)CO[C@@H]1C[C@@H]2O [taxol] |  | effective | 
6 | COc1cccc2c1C(=O)c1c(O)c3c(c(O)c1C2=O)C[C@@](O)(C(=O)CO)C[C@@H]3O[C@H]1C[C@H](N)[C@H](O)[C@H](C)O1 [doxorubicin] |  | effective | 
7 | COc1cccc2c1C(=O)c1c(O)c3c(c(O)c1C2=O)C[C@@](O)(C(C)=O)C[C@@H]3O[C@H]1C[C@H](N)[C@H](O)[C@H](C)O1 [daunomycin/daunorubicin] |  | effective | 
8 | CO[C@@]12[C@H](COC(N)=O)C3=C(C(=O)C(C)=C(N)C3=O)N1C[C@@H]1N[C@@H]12 [mitomycin] |  | effective | 
9 | trypsin | lens epithelial cells were stripped in places |  | the zonules were damaged
